# Test results as given in patent publication US20230138395A1, “PHARMACEUTICAL COMPOSITIONS OF A THERAPEUTIC POLYENE MACROLIDE AND METHODS OF THEIR USE” (priority 2020, published 2023).
# “And” between values parts separate entries of the source, which are not always exact repeats. Identical values can stand only once.
# Legend:
# [1] = tested on: individual Aspergillus spp. (Table 14, species not named); test: MFC determination, Table 14; assay type: cell-based; settings: Aspergillus sp. of Table 14
# [2] = tested on: C. glabrata strains; test: MIC testing (CLSI M27-A3); assay type: cell-based; parameters: MIC: unit not given beside the values
# [3] = tested on: C. tropicalis; test: MIC testing (CLSI M27-A3); assay type: cell-based
# [4] = tested on: C. albicans SC5314; test: In vitro activity (MFC) against the infecting strain, Example 18; assay type: cell-based, Candida albicans; settings: Candida albicans, read-out: MFC
# [5] = tested on: C. glabrata strains; test: MFC determination; assay type: cell-based; parameters: MFC: unit not given beside the values
# [6] = tested on: C. krusei strains; test: MIC testing (CLSI M27-A3); assay type: cell-based
# [7] = tested on: all Aspergillus strains tested; test: MIC testing (CLSI M38-A2), summary; assay type: cell-based; settings: caspofungin read as MEC
# [8] = tested on: Fusarium strains (Table 18); test: MIC testing (CLSI M38-A2), Table 18; assay type: cell-based, Fusarium spp.
# [9] = tested on: individual Aspergillus spp. (Table 12, species not named); test: MFC determination, Table 12; assay type: cell-based; settings: Aspergillus sp. of Table 12
# [10] = tested on: A. fumigatus AF91; test: In vitro activity (MFC) against the infecting strain, Example 17; assay type: cell-based, Aspergillus fumigatus; settings: Aspergillus fumigatus, read-out: MFC
# Protocol: Minimum Fungicidal Concentration: MFC determinations were performed according to the modifications previously described by Canton et al., Diagn. Microbiol. Infect. Dis., 45:203-206, 2003, and Ghannoum and Isham, Infectious Diseases in Clinical Practice, 15(4):250-253, 2007.
# Specifically, the total contents of each clear well from the MIC assay were subcultured onto potato dextrose agar. To avoid antifungal carryover, the aliquots were allowed to soak into the agar and then were streaked for isolation once dry, thus removing the cells from the drug source. Fungicidal activity is defined as ≥99.9% reduction in the number of colony forming units (CFU)/ml from the starting inoculum count, while fungistatic activity is defined as <99.9% reduction. […] MIC and MFC values are considered to be equivalent if they are within 2 dilutions.
# [11] = tested on: Blastomyces dermatitidis, Coccidioides immitis, and Histoplasma capsulatum strains; assay type: cell-based; settings: dimorphic fungal isolates; in µg/mL
# [12] = tested on: Aspergillus fumigatus AF91; test: Disseminated Aspergillosis in immunocompromised murine model (CD-1 mice): tissue fungal burden; settings: Experiment I; 7.5 mg/kg i.v., 7 days
# [13] = tested on: Paecilomyces strains; test: MIC testing (CLSI M38-A2); assay type: cell-based, Paecilomyces spp.; settings: Paecilomyces strains (5); in µg/mL
compound,measurement,setting,value
"C[C@@H](c1ncncc1F)[C@](O)(Cn1cncn1)c1ccc(F)cc1F [Voriconazole, voriconazole]",MFC50,[1]; kills 50% of strains,> 8 µg/mL
same,MFC90,[1]; kills 90% of strains,> 8 µg/mL
same,MIC50,"[2]; C. glabrata, inhibits 50% of strains",0.25 µg/mL
same,MIC90,"[2]; C. glabrata, inhibits 90% of strains",4 µg/mL
same,MIC,"[2]; individual C. glabrata strain with elevated MICs to non-polyene comparators (Table 22), listed as Vor",1 (3×) and >32 and 0.25 and 2
same,MIC Range,"[3]; C. tropicalis strains, in µg/mL",<0.06-1
same,MIC50,"[3]; C. tropicalis, inhibits 50% of strains",0.06 µg/mL
same,MIC90,"[3]; C. tropicalis, inhibits 90% of strains",0.06 µg/mL
same,MFC,[4],> 32 µg/mL
same,MFC Range,"[5]; C. glabrata strains, in µg/mL",>32
same,MFC50,"[5]; C. glabrata, kills 50% of strains",> 32 µg/mL
same,MFC90,"[5]; C. glabrata, kills 90% of strains",> 32 µg/mL
same,MFC,"[5]; individual C. glabrata strain with elevated MICs to non-polyene comparators (Table 22), in µg/mL",>32
same,MIC Range,"[6]; C. krusei strains, in µg/mL",<0.06-0.5
same,MIC50,"[6]; C. krusei, inhibits 50% of strains",0.125 µg/mL
same,MIC90,"[6]; C. krusei, inhibits 90% of strains",0.25 µg/mL
same,MIC Range,[7]; in µg/mL,0.06-8
same,MIC50,[7]; inhibits 50% of strains,0.5 µg/mL
same,MIC90,[7]; inhibits 90% of strains,2 µg/mL
same,MIC50,[8]; inhibits 50% of strains,16 µg/mL
same,MIC90,[8]; inhibits 90% of strains,> 16 µg/mL
same,MFC50,[9]; kills 50% of strains,4 µg/mL
same,MFC90,[9]; kills 90% of strains,> 16 µg/mL
same,MFC,[10],> 8 µg/mL
same,MIC Range,[11],<0.03-0.125
same,"Kidney tissue fungal burden, Mean log CFUs ± the standard deviation",[12],3.19 ± 0.59 log CFUs
same,"Lung tissue fungal burden, Mean log CFUs ± the standard deviation",[12],3.38 ± 0.45 log CFUs
same,MIC Range,[13],0.125-2
